One data set has as its system Vero cells. In words: Cytotoxicity MTT assay in Vero cells (MNTD, CC50). In kind it is cell-based, African green monkey. Particulars: Table S1; Vero cells. A general note: Formazan colour is commonly taken as a measure of viable cells.
In a further data set the test system is CHIKV DRDE-07. As to the kind of experiment: In vitro screening against CHIKV (CPE inhibition and MTT cell viability). The format is cell-based, chikungunya virus. Particulars: Table S1, CHIKV-infected Vero cells; for % Cell viability: 72 hpi, MTT assay; for CPE: arbitrary score of cytopathic effect at >48 hpi.

Data on 31 molecules can be found in publication PMC10674894 (Viruses, 2023).

Molecule `O=C(O)c1ccc(/C=N/NC(=O)c2ccncc2)cc1` [DCR43, (E)-4-((2-isonicotinoylhydrazono)methyl)benzoic acid] displayed an MNTD in the data set on Vero cells of 31.25 µM. Besides, in the data set on CHIKV DRDE-07, the “% Cell viability” value was found to be 16.82% and the CPE entry is “++++ (>60% (++++))”.

Molecule `C/C(=N\NC(=O)c1ccncc1)c1ccccc1O` [DCR44, (E)-N'-(1-(2-hydroxyphenyl)ethylidene)isonicotinohydrazide] displayed an MNTD in the data set on Vero cells of 31.25 µM. Moreover, in the data set with CHIKV DRDE-07, the “% Cell viability” value was 18.88% and the CPE result is “++++ (>60% (++++))”.

For `C/C(=N\NC(=O)c1cccnc1)c1ccc(O)cc1` [DCR45, (E)-N'-(1-(4-hydroxyphenyl)ethylidene)nicotinohydrazide], the MNTD in the data set with Vero cells is 31.25 µM. For the same molecule, in the data set on CHIKV DRDE-07, the “% Cell viability” value is given as 15.55% and the CPE entry was “++++ (>60% (++++))”.

`C/C(=N\NC(=O)c1cccnc1)c1ccccc1N` [DCR46, (E)-2-(1-(2-nicotinoylhydrazono)ethyl)benzenaminium] registered an MNTD in the data set with Vero cells of 31.25 µM. For the same molecule, in the data set with CHIKV DRDE-07, the “% Cell viability” value was found to be 27.31% and the CPE entry is “++++ (>60% (++++))”.

For `C/C(=N\NC(=O)c1cccnc1)c1c(O)ccc2ccccc12` [DCR47, (E)-N'-(1-(2-hydroxynaphthalen-1-yl)ethylidene)nicotinohydrazide], the MNTD in the data set with Vero cells worked out at 31.25 µM. In addition, in the data set with CHIKV DRDE-07, the “% Cell viability” value worked out at 6.42% and the CPE entry was “++++ (>60% (++++))”.

The molecule `COc1ccc(/C(=N\NC(=O)c2cccnc2)c2ccccc2)cc1` [DCR48, (Z)-N'-((4-methoxyphenyl)(phenyl)methylene)nicotinohydrazide] returned an MNTD with Vero cells of 31.25 µM. For the same molecule, in the data set on CHIKV DRDE-07, the “% Cell viability” value is on record as 20.87% and the CPE result is “++++ (>60% (++++))”.

In turn, `C/C(=N\NC(=O)c1ccncc1)c1ccccc1O` [DCR49, (E)-N'-(1-(2-hydroxyphenyl)ethylidene)isonicotinohydrazide] yielded an MNTD in the data set with Vero cells of 62.5 µM. Besides, in the data set on CHIKV DRDE-07, the “% Cell viability” value amounted to 48.9% and the CPE result is given as “+++ (60-50% (+++))”.

In the data set on Vero cells, `C/C(=N\NC(=O)c1ccncc1)c1ccc(O)cc1` [DCR50, (E)-N'-(1-(4-hydroxyphenyl)ethylidene)isonicotinohydrazide] showed an MNTD of 62.5 µM. Besides, in the data set with CHIKV DRDE-07, the “% Cell viability” value was 18.01% and the CPE result was “++++ (>60% (++++))”.

Molecule `C/C(=N\NC(=O)c1ccncc1)c1ccccc1N` [DCR51, (E)-2-(1-(2-isonicotinoylhydrazono)ethyl)benzenaminium] had an MNTD in the data set on Vero cells of 62.5 µM. In the data set with CHIKV DRDE-07, the “% Cell viability” value is listed as -2.93% and the CPE entry is recorded as “++++ (>60% (++++))”.

As for `C/C(=N\NC(=O)c1ccncc1)c1c(O)ccc2ccccc12` [DCR52, N'-[(1E)-1-(2-hydroxynaphthalen-1-yl)ethylidene]pyridine-4-carbohydrazide], the MNTD in the data set on Vero cells amounted to 31.25 µM. Also, in the data set on CHIKV DRDE-07, the “% Cell viability” value is 30.87% and the CPE result is “++++ (>60% (++++))”.

The molecule `COc1ccc(/C(=N\NC(=O)c2ccncc2)c2ccccc2)cc1` [DCR53, N'-[(1Z)-(4-methoxyphenyl)(phenyl)methylidene]pyridine-4-carbohydrazide] showed an MNTD in the data set with Vero cells of 31.25 µM. Further, in the data set on CHIKV DRDE-07, the “% Cell viability” value came out at 11.42% and the CPE entry is given as “++++ (>60% (++++))”.

For `O=C(c1cccnc1)n1nc(-c2ccc(O)cc2)cc1-c1ccc(Cl)cc1Cl` [DCR54, 4-[5-(2,4-dichlorophenyl)-1-(pyridine-3-carbonyl)-1H-pyrazol-3-yl]phenol], in the data set on Vero cells, the MNTD is given as 15.62 µM. In the data set on CHIKV DRDE-07, the “% Cell viability” value is 8.73% and the CPE result is recorded as “++++ (>60% (++++))”.

In turn, `O=C(c1cccnc1)n1nc(-c2ccc(O)cc2)cc1-c1ccccc1` [DCR55, 4-[5-phenyl-1-(pyridine-3-carbonyl)-1H-pyrazol-3-yl]phenol] returned an MNTD with Vero cells of 31.25 µM. Besides, in the data set on CHIKV DRDE-07, the “% Cell viability” value was 17.69% and the CPE result is reported as “++++ (>60% (++++))”.

For the molecule `Cc1ccc(-c2cc(-c3ccc(O)cc3)nn2C(=O)c2cccnc2)cc1` [DCR56, 4-[5-(4-methylphenyl)-1-(pyridine-3-carbonyl)-1H-pyrazol-3-yl]phenol], the MNTD in the data set with Vero cells is 31.25 µM. Moreover, in the data set with CHIKV DRDE-07, the “% Cell viability” value is reported as 24.2% and the CPE entry is reported as “++++ (>60% (++++))”.

`Cc1ccc(-c2cc(-c3ccc(O)cc3)nn2C(=O)c2cccnc2)cc1` [DCR57, 4-[5-(4-methylphenyl)-1-(pyridine-3-carbonyl)-1H-pyrazol-3-yl]phenol] returned an MNTD with Vero cells of 31.25 µM. In the data set with CHIKV DRDE-07, the “% Cell viability” value was found to be 24.84% and the CPE result is “++++ (>60% (++++))”.

Turning to `CCOc1ccc(-c2cc(-c3ccc(O)cc3)nn2C(=O)c2cccnc2)cc1OC` [DCR58, 4-[5-(4-ethoxy-3-methoxyphenyl)-1-(pyridine-3-carbonyl)-1H-pyrazol-3-yl]phenol], the MNTD with Vero cells is 15.62 µM. Moreover, in the data set with CHIKV DRDE-07, the “% Cell viability” value is 8.17% and the CPE result is reported as “++++ (>60% (++++))”.

In the data set on Vero cells, `CCOc1cc(-c2cc(-c3ccc(O)cc3)nn2C(=O)c2cccnc2)ccc1O` [DCR59, 2-ethoxy-4-[3-(4-hydroxyphenyl)-1-(pyridine-3-carbonyl)-1H-pyrazol-5-yl]phenol] displayed an MNTD of 15.62 µM. For the same molecule, in the data set on CHIKV DRDE-07, the “% Cell viability” value was 49.1% and the CPE entry was “+++ (60-50% (+++))”.

Regarding `COc1cc(-c2cc(-c3ccc(O)cc3)nn2C(=O)c2cccnc2)cc(OC)c1OC` [DCR60, 4-[1-(pyridine-3-carbonyl)-5-(3,4,5-trimethoxyphenyl)-1H-pyrazol-3-yl]phenol], the MNTD in the data set with Vero cells is recorded as 31.25 µM. Moreover, in the data set with CHIKV DRDE-07, the “% Cell viability” value was -3.41% and the CPE entry is on record as “++++ (>60% (++++))”.

Consider `COc1ccc(Br)cc1-c1cc(-c2ccc(O)cc2)nn1C(=O)c1cccnc1` [DCR61, 4-[5-(5-bromo-2-methoxyphenyl)-1-(pyridine-3-carbonyl)-1H-pyrazol-3-yl]phenol], for which the MNTD in the data set with Vero cells came to 31.25 µM. In the data set with CHIKV DRDE-07, the “% Cell viability” value was 12.22% and the CPE result was “++++ (>60% (++++))”.

On to `O=C(O)c1ccc(-c2cc(-c3ccc(O)cc3)nn2C(=O)c2cccnc2)cc1` [DCR62, 4-[3-(4-hydroxyphenyl)-1-(pyridine-3-carbonyl)-1H-pyrazol-5-yl]benzoic acid], for which, in the data set with Vero cells, the MNTD stood at 31.25 µM. In addition, in the data set on CHIKV DRDE-07, the “% Cell viability” value is on record as -27.93% and the CPE result is on record as “++++ (>60% (++++))”.

In the case of `O=C(c1cccnc1)n1nc(-c2ccc(O)cc2)cc1-c1cccc([N+](=O)[O-])c1` [DCR63, 4-[5-(3-nitrophenyl)-1-(pyridine-3-carbonyl)-1H-pyrazol-3-yl]phenol], in the data set with Vero cells, the MNTD stood at 31.25 µM. Moreover, in the data set on CHIKV DRDE-07, the “% Cell viability” value is -4.2% and the CPE entry was “++++ (>60% (++++))”.

In the data set with Vero cells, `O=C1NC(c2ccc(Cl)cc2)c2c(ccc3ccccc23)O1` (stereo not drawn) [DCR64, 1-(4-chlorophenyl)-1H,2H,3H-naphtho[1,2-e][1,3]oxazin-3-one] gave an MNTD of 31.25 µM. Moreover, in the data set on CHIKV DRDE-07, the “% Cell viability” value is given as -3.8% and the CPE entry is recorded as “++++ (>60% (++++))”.

In the data set with Vero cells, `O=C1NC(c2ccc(F)cc2)c2c(ccc3ccccc23)O1` (stereo not drawn) [DCR65, 1-(4-fluorophenyl)-1H,2H,3H-naphtho[1,2-e][1,3]oxazin-3-one] registered an MNTD of 53.27 µM. Further, in the data set with CHIKV DRDE-07, the “% Cell viability” value was found to be 12.63% and the CPE result was “++++ (>60% (++++))”.

`Cc1ccc(C2NC(=O)Oc3ccc4ccccc4c32)cc1` (stereo not drawn) [DCR66, 1-(4-methylphenyl)-1H,2H,3H-naphtho[1,2-e][1,3]oxazin-3-one] registered an MNTD in the data set on Vero cells of 54 µM. Further, in the data set with CHIKV DRDE-07, the “% Cell viability” value was 12.24% and the CPE result is “++++ (>60% (++++))”.

For `O=C1NC(c2cccc(Cl)c2)c2c(ccc3ccccc23)O1` (stereo not drawn) [DCR67, 1-(3-chlorophenyl)-1H,2H,3H-naphtho[1,2-e][1,3]oxazin-3-one], the MNTD in the data set with Vero cells stood at 50.44 µM. Besides, in the data set on CHIKV DRDE-07, the “% Cell viability” value turned out to be 10.94% and the CPE result is listed as “++++ (>60% (++++))”.

The molecule `O=C1NC(c2cccc(Cl)c2)c2c(ccc3ccccc23)O1` (stereo not drawn) [DCR68, 1-(3-chlorophenyl)-1H,2H,3H-naphtho[1,2-e][1,3]oxazin-3-one] returned an MNTD with Vero cells of 53.27 µM. For the same molecule, in the data set on CHIKV DRDE-07, the “% Cell viability” value amounted to 10.84% and the CPE result is given as “++++ (>60% (++++))”.

Regarding `CCOc1ccc(C2NC(=O)Oc3ccc4ccccc4c32)cc1` (stereo not drawn) [DCR69, 1-(4-ethoxyphenyl)-1H,2H,3H-naphtho[1,2-e][1,3]oxazin-3-one], the MNTD in the data set with Vero cells was 195.71 µM. Besides, in the data set with CHIKV DRDE-07, the “% Cell viability” value is on record as 7.61% and the CPE result was “++++ (>60% (++++))”.

In the case of `O=C1NC(c2ccc(C(F)(F)F)cc2)c2c(ccc3ccccc23)O1` (stereo not drawn) [DCR70, 1-[4-(trifluoromethyl)phenyl]-1H,2H,3H-naphtho[1,2-e][1,3]oxazin-3-one], the MNTD with Vero cells is 45.44 µM. In addition, in the data set on CHIKV DRDE-07, the “% Cell viability” value came out at 10.59% and the CPE result is “++++ (>60% (++++))”.

`O=C1NC(c2ccc(OC(F)(F)F)cc2)c2c(ccc3ccccc23)O1` (stereo not drawn) [DCR71, 1-[4-(trifluoromethoxy)phenyl]-1H,2H,3H-naphtho[1,2-e][1,3]oxazin-3-one] registered an MNTD with Vero cells of 43.42 µM. Besides, in the data set on CHIKV DRDE-07, the “% Cell viability” value stood at 7.44% and the CPE result is reported as “++++ (>60% (++++))”.

In the data set on Vero cells, `CCOc1ccc(C2NC(=O)NC(C)=C2C(=O)OCCN(C)C)cc1` (stereo not drawn) [DCR72, 2-(dimethylamino)ethyl 4-(4-ethoxyphenyl)-6-methyl-2-oxo-1,2,3,4-tetrahydropyrimidine-5-carboxylate] had an MNTD of 31.25 µM. In addition, in the data set on CHIKV DRDE-07, the “% Cell viability” value turned out to be 25.42% and the CPE entry is “++++ (>60% (++++))”.

`CC1=C(C(=O)OCCN(C)C)C(c2ccc([N+](=O)[O-])cc2)NC(=O)N1` (stereo not drawn) [DCR73, 2-(dimethylamino)ethyl 6-methyl-4-(4-nitrophenyl)-2-oxo-1,2,3,4-tetrahydropyrimidine-5-carboxylate]: in the data set with Vero cells, the MNTD is given as 31.25 µM. Moreover, in the data set on CHIKV DRDE-07, the “% Cell viability” value is 24.54% and the CPE result is reported as “++++ (>60% (++++))”.
